# Laboratory results: ChEMBL document CHEMBL1133854, “Discovery and evaluation of piperidinyl carboxylic acid derivatives as potent alpha(4)beta(1) integrin antagonists” (Bioorg Med Chem Lett, 2001)
# What was measured:
# Integrin alpha-4/beta-1 [1] = target: T1, Integrin alpha-4/beta-1 (Homo sapiens, UniProt P05556+P13612); test: Inhibition of VCAM-1 binding to integrin alpha4-beta1 of Jurkat cells; type: cell-based
# Integrin alpha-4/beta-1 [2] = target: T1, Integrin alpha-4/beta-1; test: Inhibition of VCAM-1 binding to integrin alpha4-beta1 in Jurkat cells at 10 uM; type: cell-based
# [3] = Partition coefficient (logP); type: physicochemical; settings: octanol/water
# [4] = Maximal concentration determined at a dose 10 mg/kg administered intraperitoneally to mice; type: ADME, organism-based; design: dose 10 mg/kg, route intraperitoneal; settings: mouse, in vivo, ip
# Integrin alpha-V/beta-3 = Integrin alpha-V/beta-3 (Homo sapiens, UniProt P05106+P06756); test: Inhibition of VCAM-1 binding to integrin alphaV-beta3 in Jurkat cells; type: cell-based
# [5] = Area under curve (AUC) determined at a dose 10 mg/kg administered intraperitoneally to mice; type: ADME, organism-based; design: dose 10 mg/kg, route intraperitoneal; settings: mouse, in vivo, ip
# [6] = Half life (t1/2) determined at a dose 10 mg/kg administered intraperitoneally to mice; type: ADME, organism-based; design: dose 10 mg/kg, route intraperitoneal; settings: mouse, in vivo, ip
# [7] = Inhibition of VCAM-1 binding to integrin alpha9/beta1 in Jurkat cells; type: cell-based, Homo sapiens
# T1 sequence (P05556 whole entry): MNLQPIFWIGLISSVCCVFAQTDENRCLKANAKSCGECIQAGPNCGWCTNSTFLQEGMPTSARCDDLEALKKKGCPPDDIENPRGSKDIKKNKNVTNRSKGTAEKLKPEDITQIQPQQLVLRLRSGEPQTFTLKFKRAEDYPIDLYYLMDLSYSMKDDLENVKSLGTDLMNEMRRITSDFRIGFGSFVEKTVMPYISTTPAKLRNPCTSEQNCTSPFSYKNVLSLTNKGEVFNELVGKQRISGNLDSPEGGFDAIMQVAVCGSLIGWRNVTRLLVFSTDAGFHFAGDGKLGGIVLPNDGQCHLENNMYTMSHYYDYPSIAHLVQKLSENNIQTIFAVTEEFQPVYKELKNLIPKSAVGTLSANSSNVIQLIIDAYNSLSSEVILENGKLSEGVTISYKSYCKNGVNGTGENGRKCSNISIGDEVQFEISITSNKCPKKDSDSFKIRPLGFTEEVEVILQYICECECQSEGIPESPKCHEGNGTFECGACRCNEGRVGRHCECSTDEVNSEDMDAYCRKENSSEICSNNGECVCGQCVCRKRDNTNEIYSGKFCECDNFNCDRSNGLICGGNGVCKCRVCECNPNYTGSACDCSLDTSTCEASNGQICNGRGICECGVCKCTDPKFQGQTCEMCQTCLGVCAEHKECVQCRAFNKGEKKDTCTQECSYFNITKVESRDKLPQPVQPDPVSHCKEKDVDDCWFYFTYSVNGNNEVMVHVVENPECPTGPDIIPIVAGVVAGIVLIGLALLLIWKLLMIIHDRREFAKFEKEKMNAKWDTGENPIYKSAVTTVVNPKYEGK
# T1 sequence (P13612 whole entry): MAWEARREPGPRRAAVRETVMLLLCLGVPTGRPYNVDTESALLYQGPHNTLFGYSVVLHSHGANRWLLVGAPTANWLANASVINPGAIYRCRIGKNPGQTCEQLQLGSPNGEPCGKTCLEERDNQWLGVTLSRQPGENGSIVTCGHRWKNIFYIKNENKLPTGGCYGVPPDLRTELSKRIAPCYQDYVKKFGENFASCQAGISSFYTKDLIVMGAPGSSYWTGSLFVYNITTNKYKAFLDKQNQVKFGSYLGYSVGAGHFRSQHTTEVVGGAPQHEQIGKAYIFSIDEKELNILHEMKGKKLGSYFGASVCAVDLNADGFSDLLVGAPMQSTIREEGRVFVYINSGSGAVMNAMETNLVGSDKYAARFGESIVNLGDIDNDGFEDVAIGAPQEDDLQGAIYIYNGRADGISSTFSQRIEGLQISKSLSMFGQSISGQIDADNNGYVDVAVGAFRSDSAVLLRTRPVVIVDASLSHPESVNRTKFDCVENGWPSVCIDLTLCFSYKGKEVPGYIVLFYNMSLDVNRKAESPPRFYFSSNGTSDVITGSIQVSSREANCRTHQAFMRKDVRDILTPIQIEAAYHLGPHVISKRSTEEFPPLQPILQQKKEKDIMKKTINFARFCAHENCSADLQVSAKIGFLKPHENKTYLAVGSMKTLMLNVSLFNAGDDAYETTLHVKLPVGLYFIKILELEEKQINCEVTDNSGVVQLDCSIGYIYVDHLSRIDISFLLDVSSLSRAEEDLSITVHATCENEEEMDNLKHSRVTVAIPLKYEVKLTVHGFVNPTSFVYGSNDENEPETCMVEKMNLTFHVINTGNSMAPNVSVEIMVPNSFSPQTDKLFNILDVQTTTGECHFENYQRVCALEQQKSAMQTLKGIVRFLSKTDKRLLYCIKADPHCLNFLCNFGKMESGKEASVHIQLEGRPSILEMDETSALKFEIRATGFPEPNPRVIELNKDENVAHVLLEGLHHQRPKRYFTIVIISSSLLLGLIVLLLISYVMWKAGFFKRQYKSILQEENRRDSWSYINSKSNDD
# Chain of Integrin alpha-V/beta-3 (P05106 27-788 limits assumed): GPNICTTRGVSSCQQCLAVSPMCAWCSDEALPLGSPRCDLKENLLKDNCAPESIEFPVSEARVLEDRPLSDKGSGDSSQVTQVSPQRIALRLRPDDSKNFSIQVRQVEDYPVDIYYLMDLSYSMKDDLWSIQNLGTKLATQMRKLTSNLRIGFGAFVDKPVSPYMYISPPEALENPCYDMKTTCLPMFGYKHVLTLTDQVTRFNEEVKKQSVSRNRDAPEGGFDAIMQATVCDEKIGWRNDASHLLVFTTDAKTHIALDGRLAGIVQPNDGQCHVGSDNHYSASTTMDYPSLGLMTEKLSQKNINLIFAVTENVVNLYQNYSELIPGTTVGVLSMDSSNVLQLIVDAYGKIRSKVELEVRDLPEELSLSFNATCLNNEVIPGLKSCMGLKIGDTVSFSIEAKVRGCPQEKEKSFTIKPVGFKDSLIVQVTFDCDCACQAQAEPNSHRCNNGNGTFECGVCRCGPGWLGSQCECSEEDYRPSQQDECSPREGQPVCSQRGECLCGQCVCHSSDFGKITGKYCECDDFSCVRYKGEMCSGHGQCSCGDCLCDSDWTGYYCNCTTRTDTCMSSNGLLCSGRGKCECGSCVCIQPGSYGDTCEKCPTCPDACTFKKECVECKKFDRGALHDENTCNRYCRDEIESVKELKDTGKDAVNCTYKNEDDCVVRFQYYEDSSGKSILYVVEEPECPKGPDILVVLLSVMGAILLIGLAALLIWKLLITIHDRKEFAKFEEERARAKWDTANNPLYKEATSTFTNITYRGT
# Chain of Integrin alpha-V/beta-3 (P06756 31-889 limits assumed): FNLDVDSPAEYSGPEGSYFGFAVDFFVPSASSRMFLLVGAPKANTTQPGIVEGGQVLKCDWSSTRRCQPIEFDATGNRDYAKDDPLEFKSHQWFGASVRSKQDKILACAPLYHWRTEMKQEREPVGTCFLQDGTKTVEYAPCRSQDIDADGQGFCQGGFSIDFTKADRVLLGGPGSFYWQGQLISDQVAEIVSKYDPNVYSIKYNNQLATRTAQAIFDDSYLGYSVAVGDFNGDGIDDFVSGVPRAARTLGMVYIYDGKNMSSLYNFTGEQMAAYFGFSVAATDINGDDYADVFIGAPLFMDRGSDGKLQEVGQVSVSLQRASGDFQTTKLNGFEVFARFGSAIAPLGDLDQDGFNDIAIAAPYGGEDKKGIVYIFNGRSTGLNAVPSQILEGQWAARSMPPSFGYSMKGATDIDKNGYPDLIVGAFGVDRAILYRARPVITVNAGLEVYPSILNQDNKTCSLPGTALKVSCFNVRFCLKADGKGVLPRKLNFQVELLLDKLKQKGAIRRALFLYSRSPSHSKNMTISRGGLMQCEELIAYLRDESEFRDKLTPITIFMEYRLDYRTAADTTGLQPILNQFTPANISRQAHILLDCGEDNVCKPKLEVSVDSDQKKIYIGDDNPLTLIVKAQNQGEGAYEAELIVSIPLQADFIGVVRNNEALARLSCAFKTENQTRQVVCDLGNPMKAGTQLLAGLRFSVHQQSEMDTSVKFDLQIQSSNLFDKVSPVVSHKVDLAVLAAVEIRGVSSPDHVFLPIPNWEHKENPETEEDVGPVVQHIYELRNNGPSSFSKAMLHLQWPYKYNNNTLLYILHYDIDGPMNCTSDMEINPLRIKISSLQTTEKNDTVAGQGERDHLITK
# Chain of Integrin alpha-V/beta-3 (P06756 891-1048 limits assumed): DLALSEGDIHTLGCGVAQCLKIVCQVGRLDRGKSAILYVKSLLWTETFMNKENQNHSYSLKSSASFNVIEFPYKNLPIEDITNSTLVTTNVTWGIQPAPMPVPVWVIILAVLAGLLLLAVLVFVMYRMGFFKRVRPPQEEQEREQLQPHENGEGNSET
IC50 (Integrin alpha-4/beta-1 [1]) [µM],inhibition (Integrin alpha-4/beta-1 [2]) [%],Compound,further results
4.96,99,Cc1ccccc1NC(=O)Nc1ccc(CC(=O)N[C@@H](CC(C)C)C(=O)N2CCCCC2C(C(=O)O)c2ccccc2)cc1 (stereo partly drawn),
6.74,77,Cc1ccccc1NC(=O)Nc1ccc(CC(=O)N[C@@H](CC(C)C)C(=O)N2CCCC(CCC(=O)O)C2)cc1 (stereo partly drawn),
10,49,Cc1ccccc1NC(=O)Nc1ccc(CC(=O)N[C@@H](CC(C)C)C(=O)N2CCCCC2C(=O)O)cc1 (stereo partly drawn),
7.2,55,Cc1ccccc1NC(=O)Nc1ccc(CC(=O)N[C@@H](CC(C)C)C(=O)N2CCCC(CC(=O)O)C2)cc1 (stereo partly drawn),
0.55,98,Cc1ccccc1NC(=O)Nc1ccc(CC(=O)N[C@@H](CC(C)C)C(=O)N2CCC(CC(=O)O)CC2)cc1,
,,Cc1ccccc1NC(=O)Nc1ccc(CC(=O)N[C@@H](CC(C)C)C(=O)N[C@H](C)CC(=O)O)cc1,logP [3]: 1.72
> 10,25,Cc1ccccc1NC(=O)Nc1ccc(CC(=O)N[C@@H](CC(C)C)C(=O)N2CCCC(C(=O)O)C2)cc1 (stereo partly drawn),
4.7,96,Cc1ccccc1NC(=O)Nc1ccc(CC(=O)N[C@@H](CC(C)C)C(=O)N2CCC(C(=O)O)CC2)cc1,
0.3,100,Cc1ccccc1NC(=O)Nc1ccc(CC(=O)N[C@@H](CC(C)C)C(=O)N2CCCCC2CC(=O)O)cc1 (stereo partly drawn),Cmax [4]: 1440 ng/mL; logP [3]: 1.89; IC50 (Integrin alpha-V/beta-3): > 200 µM; AUC [5]: 955 ng·h/mL; half-life [6]: 48 min; IC50 [7]: > 50 µM
